In US12552811B2, “Immunosuppressant, and preparation method therefor and use thereof” (Abbisko Therapeutics Co., Ltd., priority 2020, dated 2026):
pEC50: −log10 of the molar value.

Test: Jurkat reporter gene cellular assay
Format: cell-based
Conditions: Homo sapiens; Jurkat/NF-κB-luc/PD1 + Raji-PD-L1 coculture, OKT3 1 μg/mL, 6 hrs, activation fold; read-out: Cell Activity EC50
Experimental: The effect of compounds of the examples of the present invention and positive compounds on the interaction between PD-1 and PD-L1 expressed on cell surfaces, and the related influence on T cell functions, were determined by a Jurkat reporter gene cellular assay.
Briefly, the reporter gene plasmid of NF-κB-luc and the plasmid of human PD-1 were transfected into Jurkat cells to establish a stably transfected cell line capable of stably expressing both PD-1 and NF-κB-Luc reporter genes; the expression level of PD-1 on the cell surface was confirmed by flow cytometry; and the expression of the reporter gene was confirmed via the response of the reporter gene stimulated by OKT-3 and Raiji cells.
In addition, the plasmid of human PD-L1 was transfected into Raji cells to obtain a cell line capable of stably expressing PD-L1. Jurkat/NF-κB-luc/PD1 cells and Raji-PD-L1 cells were then cocultured and stimulated with OKT-3. On this basis, the compounds were added, and the enhancement of the signal pathway of T cell activation by the inhibitory effect of the compounds on the interaction between PD-1 and PD-L1 was evaluated by readings of reporter gene responses. The specific experimental process was as follows: • 1) 30 μL of compound or antibody solution was added to each well of a white 96-well plate (coming, 3610) at different diluted concentrations, and 10 μL of OKT3 (Biolegend, 317326) was then added (the final concentration of OKT3: 1 μg/mL); • 2) 20 μL of Raji-PD-L1 cell suspension was added to each well with 5*10^4 cells for each well, and was incubated in an incubator for 20 min: • 3) 20 μL of Jurkat/NF-κb-luc/PD-1 cell suspension was added to each well with 5*10^4 cells for each well, and well mixed, and 6 hrs later, Bright-glo (Promega, E2620) was applied and plates were read on Envision; • 4) The reading of each well treated with the compound was compared with the reading of each well treated with DMSO to obtain the activation fold of the compound; • 5) EC50 values of compounds and positive compounds of the examples of the present invention were determined by non-linear regression analysis of activation folds at different compound concentrations.

Point of comparison: `Cn1c(C(=O)Nc2cccc(-c3cccc(NC(=O)c4cc5c(cn4)CN(C4CCC(C)(C(=O)O)CC4)CC5)c3Cl)c2Cl)nc2c1CCN(CCC13CCC(C(=O)O)(CC1)C3)C2` (centres unmarked) [Example 65, 4-(2-(2-((3′-(7-(4-carboxy-4-methylcyclohexyl)-5,6,7,8-tetrahydro-2,7-naphthyridine-3-carboxamido)-2,2′-dichloro-[1,1′-biphenyl]-3-yl)carbamoyl)-1-methyl-1,4,6,7-tetrahydro-5H-imidazo[4,5-c]pyridin-5-yl)ethyl)bicyclo[2.2.1]heptane-1-carboxylic acid], pEC50 6.91. Against it:
- C[C@@H](O)CN1CCc2cc(C(=O)Nc3cccc(-c4cccc(NC(=O)c5nc6c(n5C)CCN(CCC57CCC(C(=O)O)(CC5)C7)C6)c4Cl)c3Cl)ncc2C1 [Example 8, (R)-4-(2-(2-((2,2′-dichloro-3′-(7-(2-hydroxypropyl)-5,6,7,8-tetrahydro-2,7-naphthyridine-3-carboxamido)-[1,1′-biphenyl]-3-yl)carbamoyl)-1-methyl-1,4,6,7-tetrahydro-5H-imidazo[4,5-c]pyridin-5-yl)ethyl)bicyclo[2.2.1]heptane-1-carboxylic acid] — 0.31 log units higher, 7.22
- C[C@@H](O)CN1CCc2cc(/C(F)=C/c3cccc(-c4cccc(Nc5nccc6cc(CN[C@H](CO)C(=O)O)cnc56)c4Cl)c3Cl)ncc2C1 [Example 70, ((8-((2,2′-dichloro-3′-((Z)-2-fluoro-2-(7-((R)-2-hydroxypropyl)-5,6,7,8-tetrahydro-2,7-naphthyridin-3-yl)vinyl)-[1,1′-biphenyl]-3-yl)amino)-1,7-naphthyridin-3-yl)methyl)-D-serine] — 0.89 log units lower, 6.02
- Cc1c(/C=C(\F)c2cc3c(cn2)CN(CCC24CCC(C(=O)O)(CC2)C4)CC3)cccc1-c1cccc(Nc2nccc3cc(CNC[C@@H]4CCC(=O)N4)cnc23)c1C [Example 74, (S,Z)-4-(2-(6-(2-(2,2′-dimethyl-3′-((3-((((5-oxopyrrolidin-2-yl)methyl)amino)methyl)-1,7-naphthyridin-8-yl)amino)-[1,1′-biphenyl]-3-yl)-1-fluorovinyl)-3,4-dihydro-2,7-naphthyridin-2(1H)-yl)ethyl)bicyclo [2.2.1]heptane-1-carboxylic acid] — 1.06 log units lower, 5.85
- CN(C)C(=O)CCCCN1CCc2cc(C(=O)Nc3cccc(-c4cccc(NC(=O)c5nc6c(n5C)CCN(CCC57CCC(C(=O)O)(CC5)C7)C6)c4Cl)c3Cl)ncc2C1 [Example 16, 4-(2-(2-((2,2′-dichloro-3′-(7-(5-(dimethylamino)-5-oxopentyl)-5,6,7,8-tetrahydro-2,7-naphthyridine-3-carboxamido)-[1,1′-biphenyl]-3-yl)carbamoyl)-1-methyl-1,4,6,7-tetrahydro-5H-imidazo[4,5-c]pyridin-5-yl)ethyl)bicyclo[2.2.1]heptane-1-carboxylic acid] — within 0.2 log units, 7.08
- O=C1CC[C@@H](CNCc2cnc3c(Nc4cccc(-c5cccc(/C=C(\F)c6cc7c(cn6)CN(CCC68CCC(C(=O)O)(CC6)C8)CC7)c5Cl)c4Cl)nccc3c2)N1 [Example 75, (S,Z)-4-(2-(6-(2-(2,2′-dichloro-3′-((3-((((5-oxopyrrolidin-2-yl)methyl)amino)methyl)-1,7-naphthyridin-8-yl)amino)-[1,1′-biphenyl]-3-yl)-1-fluorovinyl)-3,4-dihydro-2,7-naphthyridin-2(1H)-yl)ethyl)bicyclo [2.2.1]heptane-1-carboxylic acid] — 0.96 log units lower, 5.95
- Cn1c(C(=O)Nc2cccc(-c3cccc(NC(=O)c4cc5c(cn4)CN(CCC(C)(C)O)CC5)c3Cl)c2Cl)nc2c1CCN(CCC13CCC(C(=O)O)(CC1)C3)C2 [Example 13, 4-(2-(2-((2,2′-dichloro-3′-(7-(3-hydroxy-3-methylbutyl)-5,6,7,8-tetrahydro-2,7-naphthyridine-3-carboxamido)-[1,1′-biphenyl]-3-yl)carbamoyl)-1-methyl-1,4,6,7-tetrahydro-5H-imidazo[4,5-c]pyridin-5-yl)ethyl)bicyclo[2.2.1]heptane-1-carboxylic acid] — within 0.2 log units, 7.10
- CC(C)N1CCc2cc(C(=O)Nc3cccc(-c4cccc(NC(=O)c5cc6c(cn5)CN(C(C)C)CC6)c4Cl)c3Cl)ncc2C1 [Example 66] — lower, < 5.00
- O=C1CC[C@@H](CNCc2cnc3c(Nc4cccc(-c5cccc(NC(=O)c6cc7c(cn6)CN(CC68CCC(C(=O)O)(CC6)C8)CC7)c5Cl)c4Cl)nccc3c2)N1 [Example 78, (S)-4-((6-((2,2′-dichloro-3′-((3-((((5-oxopyrrolidin-2-yl)methyl)amino)methyl)-1,7-naphthyridin-8-yl)amino)-[1,1′-biphenyl]-3-yl)carbamoyl)-3,4-dihydro-2,7-naphthyridin-2(1H)-yl)methyl)bicyclo[2.2.1] heptane-1-carboxylic acid] — 0.61 log units lower, 6.30
- Cn1c(C(=O)Nc2cccc(-c3cccc(NC(=O)c4cc5c(cn4)CN(C4CCC4)CC5)c3Cl)c2Cl)nc2c1CCN(CCC13CCC(C(=O)O)(CC1)C3)C2 [Example 5, 4-(2-(2-((2,2′-dichloro-3′-(7-cyclobutyl-5,6,7,8-tetrahydro-2,7-naphthyridine-3-carboxamido)-[1,1′-biphenyl]-3-yl)carbamoyl)-1-methyl-1,4,6,7-tetrahydro-5H-imidazo[4,5-c]pyridin-5-yl)ethyl)bicyclo [2.2.1]heptane-1-carboxylic acid] — within 0.2 log units, 6.97
- Cn1c(C(=O)Nc2cccc(-c3cccc(NC(=O)c4cc5c(cn4)CN(C4CCCC4)CC5)c3Cl)c2Cl)nc2c1CCN(CCC13CCC(C(=O)O)(CC1)C3)C2 [Example 64, 4-(2-(2-((2,2′-dichloro-3′-(7-cyclopentyl-5,6,7,8-tetrahydro-2,7-naphthyridine-3-carboxamido)-[1,1′-biphenyl]-3-yl)carbamoyl)-1-methyl-1,4,6,7-tetrahydro-5H-imidazo[4,5-c]pyridin-5-yl)ethyl)bicyclo [2.2.1]heptane-1-carboxylic acid] — within 0.2 log units, 6.81
- Cn1c(C(=O)Nc2cccc(-c3cccc(NC(=O)c4cc5c(cn4)CN([C@H]4CCC[C@@H]4O)CC5)c3Cl)c2Cl)nc2c1CCN(CCC13CCC(C(=O)O)(CC1)C3)C2 [Example 61, 4-(2-(2-((2,2′-dichloro-3′-(7-((1S,2S)-2-hydroxycyclopentyl)-5,6,7,8-tetrahydro-2,7-naphthyridine-3-carboxamido)-[1,1′-biphenyl]-3-yl)carbamoyl)-1-methyl-1,4,6,7-tetrahydro-5H-imidazo[4,5-c]pyridin-5-yl)ethyl)bicyclo[2.2.1]heptane-1-carboxylic acid] — within 0.2 log units, 7.08
- CCOC(=O)[C@@H](CO)NCc1cnc2c(Nc3cccc(-c4cccc(/C=C(\F)c5cc6c(cn5)CN(C(C)C)CC6)c4Cl)c3Cl)nccc2c1 [Example 73, ethyl (Z)-((8-((2,2′-dichloro-3′-(2-fluoro-2-(7-isopropyl-5,6,7,8-tetrahydro-2,7-naphthyridin-3-yl)vinyl)-[1,1′-biphenyl]-3-yl)amino)-1,7-naphthyridin-3-yl)methyl)-D-serinate] — 1.79 log units lower, 5.12
- CC(C)N1CCc2cc(C(=O)Nc3cccc(-c4cccc(NC(=O)c5nc6c(n5C)CCN(CC57CCC(C(=O)O)(CC5)C7)C6)c4Cl)c3Cl)ncc2C1 [Example 19, 4-((2-((2,2′-dichloro-3′-(7-isopropyl-5,6,7,8-tetrahydro-2,7-naphthyridine-3-carboxamido)-[1,1′-biphenyl]-3-yl)carbamoyl)-1-methyl-1,4,6,7-tetrahydro-5H-imidazo[4,5-c]pyridin-5-yl)methyl)bicyclo[2.2.1] heptane-1-carboxylic acid] — 0.32 log units higher, 7.23
- CC(C)N1CCc2cc(C(=O)Nc3cccc(-c4cccc(NC(=O)c5ccc6c(n5)CN(CCC57CCC(C(=O)O)(CC5)C7)CC6)c4Cl)c3Cl)ncc2C1 [Example 68, 4-(2-(2-((2,2′-dichloro-3′-(7-isopropyl-5,6,7,8-tetrahydro-2,7-yridine-3-carboxamido)-[1,1′-biphenyl]-3-yl)carbamoyl)-5,8-dihydro-1,7-naphthyridin-7(6H)-yl)ethyl)bicyclo[2.2.1]heptane-1-carboxylic acid] — within 0.2 log units, 6.75
- CC(C)N1CCc2cc(/C(F)=C/c3cccc(-c4cccc(Nc5nccc6cc(CN[C@H](CO)C(=O)O)cnc56)c4Cl)c3Cl)ncc2C1 [Example 71, (Z)-((8-((2,2′-dichloro-3′-(2-fluoro-2-(7-isopropyl-5,6,7,8-tetrahydro-2,7-naphthyridin-3-yl)vinyl)-[1,1′-biphenyl]-3-yl)amino)-1,7-naphthyridin-3-yl)methyl)-D-serine] — 0.80 log units lower, 6.11
- CC(C)N1CCc2cc(C(=O)Nc3cccc(-c4cccc(NC(=O)c5nc6c(n5C)CCN(CCC57CCC(C(=O)O)(CC5)C7)C6)c4Cl)c3Cl)ncc2C1C (centres unmarked) [Example 18, 4-(2-(2-((2,2′-dichloro-3′-(7-isopropyl-8-methyl-5,6,7,8-tetrahydro-2,7-naphthyridine-3-carboxamido)-[1,1′-biphenyl]-3-yl)carbamoyl)-1-methyl-1,4,6,7-tetrahydro-5H-imidazo[4,5-c]pyridin-5-yl)ethyl) bicyclo[2.2.1]heptane-1-carboxylic acid] — within 0.2 log units, 7.04
